Data reported in PubChem BioAssay AID248 (DTP/NCI, 2004).
Where “and” joins values, the source holds several entries; their conditions need not be identical. Identical values can stand only once. Inconclusive results and toxic doses are left out. No stated cut-off is given here; in the data, active means T/C of 150% or more; inactive means T/C below 125%.

Tested on: L1210 leukemia ip in BDF1 mice, survival T/C
Assay: NCI In Vivo Anticancer Drug Screen. Data for tumor model L1210 Leukemia (intraperitoneal) in B6D2F1 (BDF1) mice
Settings: endpoint: mean survival time, higher = longer survival
Outline: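 Ratio derived from survival: compound-dosed mice over vehicle-dosed mice, all bearing a transplantable tumor.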

[1] = dose: 100.0 mg/kg/injection, schedule: Q01DX001 (ip), vehicle: Klucel (hydroxypropylcellulose) (HPC)
[2] = dose: 200.0 mg/kg/injection, schedule: Q01DX001 (ip), vehicle: Klucel (hydroxypropylcellulose) (HPC)
[3] = dose: 400.0 mg/kg/injection, schedule: Q01DX001 (ip), vehicle: Klucel (hydroxypropylcellulose) (HPC)
[4] = dose: 25.0 mg/kg/injection, schedule: Q04DX003 (ip), vehicle: saline
[5] = dose: 50.0 mg/kg/injection, schedule: Q04DX003 (ip), vehicle: saline
[6] = dose: 100.0 mg/kg/injection, schedule: Q04DX002 (ip), vehicle: saline
[7] = dose: 100.0 mg/kg/injection, schedule: Q01DX009 (ip), vehicle: saline
[8] = dose: 100.0 mg/kg/injection, schedule: Q04DX003 (ip), vehicle: saline
[9] = dose: 200.0 mg/kg/injection, schedule: Q01DX009 (ip), vehicle: saline
[10] = dose: 400.0 mg/kg/injection, schedule: Q01DX009 (ip), vehicle: saline
[11] = dose: 100.0 mg/kg/injection, schedule: Q01DX009 (ip), vehicle: Klucel (hydroxypropylcellulose) (HPC)
[12] = dose: 100.0 mg/kg/injection, schedule: Q04DX003 (ip), vehicle: Klucel (hydroxypropylcellulose) (HPC)
[13] = dose: 200.0 mg/kg/injection, schedule: Q01DX009 (ip), vehicle: Klucel (hydroxypropylcellulose) (HPC)
[14] = dose: 200.0 mg/kg/injection, schedule: Q04DX003 (ip), vehicle: Klucel (hydroxypropylcellulose) (HPC)
[15] = dose: 400.0 mg/kg/injection, schedule: Q01DX009 (ip), vehicle: Klucel (hydroxypropylcellulose) (HPC)
[16] = dose: 50.0 mg/kg/injection, schedule: Q01DX009 (ip), vehicle: saline with Tween-80
[17] = dose: 100.0 mg/kg/injection, schedule: Q01DX009 (ip), vehicle: saline with Tween-80
[18] = dose: 400.0 mg/kg/injection, schedule: Q04DX003 (ip), vehicle: Klucel (hydroxypropylcellulose) (HPC)
[19] = dose: 100.0 mg/kg/injection, schedule: Q04DX003 (ip), vehicle: other
[20] = dose: 200.0 mg/kg/injection, schedule: Q04DX003 (ip), vehicle: other
[21] = dose: 400.0 mg/kg/injection, schedule: Q04DX003 (ip), vehicle: other
[22] = dose: 200.0 mg/kg/injection, schedule: Q01DX001 (ip), vehicle: saline
[23] = dose: 100.0 mg/kg/injection, schedule: Q01DX001 (ip), vehicle: saline
[24] = dose: 400.0 mg/kg/injection, schedule: Q01DX001 (ip), vehicle: saline

Measured: T/C

COC1OC(CN(CCOS(C)(=O)=O)CCOS(C)(=O)=O)C2OC(C)(C)OC12 (centres undefined)
inactive: dose: 50.0 mg/kg/injection, schedule: Q01DX001 (ip), vehicle: Klucel (hydroxypropylcellulose) (HPC) 114 % of control | [1] 108 % of control | [2] 107 % of control | [3] 105 % of control

COc1ccc(C(=O)/C(Br)=C/C(=O)O)cc1
inactive: dose: 12.5 mg/kg/injection, schedule: Q01DX009 (ip), vehicle: saline 102 % of control and 103 % of control and 108 % of control | dose: 12.5 mg/kg/injection, schedule: Q04DX003 (ip), vehicle: saline 94 % of control | dose: 25.0 mg/kg/injection, schedule: Q01DX009 (ip), vehicle: saline 98 % of control and 108 % of control (2×) | dose: 25.0 mg/kg/injection, schedule: Q04DX002 (ip), vehicle: saline 101 % of control | [4] 94 % of control | dose: 50.0 mg/kg/injection, schedule: Q01DX009 (ip), vehicle: saline 95 % of control and 110 % of control (2×) | dose: 50.0 mg/kg/injection, schedule: Q04DX002 (ip), vehicle: saline 105 % of control | [5] 108 % of control | [6] 112 % of control and 92 % of control

CCCc1c(C)nc(N)[nH]c1=O
inactive: [1] 102 % of control | [2] 100 % of control | [3] 97 % of control

Cc1ncc([N+](=O)[O-])n1CCN1CCOCC1
inactive: [6] 102 % of control | dose: 200.0 mg/kg/injection, schedule: Q04DX002 (ip), vehicle: saline 96 % of control | dose: 400.0 mg/kg/injection, schedule: Q04DX002 (ip), vehicle: saline 98 % of control

CC(C)CC(=O)CC(Cl)(C(F)(F)F)C(F)(F)F
inactive: dose: 100.0 mg/kg/injection, schedule: Q04DX003 (ip), vehicle: gum acacia 100 % of control | dose: 200.0 mg/kg/injection, schedule: Q04DX003 (ip), vehicle: gum acacia 100 % of control | dose: 400.0 mg/kg/injection, schedule: Q04DX003 (ip), vehicle: gum acacia 90 % of control

c1ccc(C2=NCC3(CCCC3)N=C2c2ccccc2)cc1
inactive: [7] 101 % of control | [8] 97 % of control | [9] 91 % of control | dose: 200.0 mg/kg/injection, schedule: Q04DX003 (ip), vehicle: saline 90 % of control | [10] 100 % of control | dose: 400.0 mg/kg/injection, schedule: Q04DX003 (ip), vehicle: saline 92 % of control

Cc1cc(=O)c2ccccc2[nH]1
inactive: [4] 94 % of control | [5] 100 % of control | [8] 94 % of control and 96 % of control

O=C1c2sccc2-c2cccc3cccc1c23
inactive: dose: 50.0 mg/kg/injection, schedule: Q04DX003 (ip), vehicle: Klucel (hydroxypropylcellulose) (HPC) 98 % of control | [11] 98 % of control | [12] 96 % of control | [13] 106 % of control | [14] 102 % of control | [15] 103 % of control

CC(C)C(=O)c1ccccc1C(=O)O
inactive: [16] 93 % of control | [17] 93 % of control | dose: 200.0 mg/kg/injection, schedule: Q01DX009 (ip), vehicle: saline with Tween-80 93 % of control

CCCCNc1ccc(C(=O)OCCNC2CCCCC2)cc1
inactive: dose: 75.0 mg/kg/injection, schedule: Q01DX001 (ip), vehicle: saline 100 % of control | dose: 150.0 mg/kg/injection, schedule: Q01DX001 (ip), vehicle: saline 96 % of control

CC(C)Cc1ccc(C(=O)O)cc1
inactive: [11] 94 % of control | [12] 97 % of control | [13] 94 % of control | [14] 108 % of control | [15] 94 % of control | [18] 102 % of control

CC(=O)c1cnn(-c2ccccc2)c1C
inactive: dose: 100.0 mg/kg/injection, schedule: Q01DX009 (ip), vehicle: other 96 % of control | [19] 89 % of control | dose: 200.0 mg/kg/injection, schedule: Q01DX009 (ip), vehicle: other 101 % of control | [20] 100 % of control | dose: 400.0 mg/kg/injection, schedule: Q01DX009 (ip), vehicle: other 102 % of control | [21] 92 % of control

Cc1cc(C)c(C)c(Br)c1C
inactive: [11] 92 % of control | [12] 104 % of control | [13] 92 % of control | [14] 112 % of control | [15] 86 % of control | [18] 101 % of control

CCCCCCCCCCCCC(CC(=O)O)C(=O)N(CCO)CCO (centres undefined)
inactive: dose: 12.5 mg/kg/injection, schedule: Q01DX001 (ip), vehicle: saline 97 % of control | dose: 25.0 mg/kg/injection, schedule: Q01DX001 (ip), vehicle: saline 94 % of control | dose: 50.0 mg/kg/injection, schedule: Q01DX001 (ip), vehicle: saline 91 % of control | [22] 97 % of control

Cc1cc(=O)[nH]c2oc(-c3ccccc3)cc(=O)c12
inactive: [23] 101 % of control | [22] 103 % of control | [24] 100 % of control

O=[N+]([O-])c1cccc(CNc2ccccc2)c1
inactive: dose: 100.0 mg/kg/injection, schedule: Q01DX001 (ip), vehicle: saline with Tween-80 98 % of control | dose: 200.0 mg/kg/injection, schedule: Q01DX001 (ip), vehicle: saline with Tween-80 95 % of control | dose: 400.0 mg/kg/injection, schedule: Q01DX001 (ip), vehicle: saline with Tween-80 93 % of control

CCOCCNCC1OC(OC)C2OC(C)(C)OC12 (centres undefined)
inactive: dose: 100.0 mg/kg/injection, schedule: Q01DX005 (ip), vehicle: saline 103 % of control | dose: 200.0 mg/kg/injection, schedule: Q01DX005 (ip), vehicle: saline 103 % of control

NC(=O)NNC(=O)NNC(N)=O
inactive: dose: 50.0 mg/kg/injection, schedule: Q01DX001 (ip), vehicle: carboxymethylcellulose (CMC) 95 % of control | dose: 100.0 mg/kg/injection, schedule: Q01DX001 (ip), vehicle: carboxymethylcellulose (CMC) 95 % of control | dose: 200.0 mg/kg/injection, schedule: Q01DX001 (ip), vehicle: carboxymethylcellulose (CMC) 95 % of control | dose: 400.0 mg/kg/injection, schedule: Q01DX001 (ip), vehicle: carboxymethylcellulose (CMC) 103 % of control

Nc1ncnn1C(=O)OCc1ccccc1
inactive: [23] 98 % of control | [7] 89 % of control | [22] 112 % of control | [9] 96 % of control | [24] 93 % of control | [10] 100 % of control

CCCCCCP(=O)(O)O
inactive: [17] 88 % of control

O=C1CC2CCCC(C1)N2Cc1ccccc1
inactive: [23] 92 % of control | [22] 97 % of control | [24] 101 % of control

Cc1cc(C(=O)O)c(C(C)C)cc1C(=O)O
inactive: [19] 101 % of control | [20] 98 % of control | [21] 92 % of control

O=C(/C(=C\c1ccccc1)CO)c1ccccc1
inactive: dose: 12.5 mg/kg/injection, schedule: Q01DX009 (ip), vehicle: saline with Tween-80 89 % of control | dose: 25.0 mg/kg/injection, schedule: Q01DX009 (ip), vehicle: saline with Tween-80 89 % of control | [16] 87 % of control | dose: 62.0 mg/kg/injection, schedule: Q01DX009 (ip), vehicle: saline with Tween-80 106 % of control

COc1cc2c(cc1OC)-c1cc3cc(OC)c(OC)cc3c(CCC(=O)O)[n+]1CC2
inactive: dose: 20.0 mg/kg/injection, schedule: Q04DX002 (ip), vehicle: Klucel (hydroxypropylcellulose) (HPC) 95 % of control | dose: 40.0 mg/kg/injection, schedule: Q04DX002 (ip), vehicle: Klucel (hydroxypropylcellulose) (HPC) 88 % of control | dose: 80.0 mg/kg/injection, schedule: Q04DX002 (ip), vehicle: Klucel (hydroxypropylcellulose) (HPC) 109 % of control

O=c1[nH]c2ccc([N+](=O)[O-])cc2c2nc3ccccc3n12
inactive: dose: 50.0 mg/kg/injection, schedule: Q01DX009 (ip), vehicle: Klucel (hydroxypropylcellulose) (HPC) 95 % of control | [11] 101 % of control | [13] 95 % of control
